Measurements from patent publication US8143408B2, “N-(8-heteroaryltetrahydronaphtalene-2yl) or N-(5-heteroarylchromane-3-yl) carboxamide derivatives for the treatment of pain” (AstraZeneca AB, priority 2007, dated 2012).
pIC50: −log10 of the molar value.

target: T1, Nav1.7 voltage-gated sodium channel (Homo sapiens, UniProt Q15858); test: Whole-cell voltage clamp electrophysiology assay; type: cell-based; conditions: cells stably expressing the voltage-gated sodium channel of interest
T1 construct: Gene(s) encoding the full-length protein of the voltage-gated sodium channel of interest are cloned and expressed; expressed in transfected cells
How it was run: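 Cells expressing full-length channel, exposed to drug by integrated pipetting on automated patch-clamp platforms or by microperfusion in conventional whole-cell patch clamp. Channels activated by a voltage protocol depolarising from a defined holding potential; buffers per platform manufacturer.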

T1 sequence (Q15858 whole entry): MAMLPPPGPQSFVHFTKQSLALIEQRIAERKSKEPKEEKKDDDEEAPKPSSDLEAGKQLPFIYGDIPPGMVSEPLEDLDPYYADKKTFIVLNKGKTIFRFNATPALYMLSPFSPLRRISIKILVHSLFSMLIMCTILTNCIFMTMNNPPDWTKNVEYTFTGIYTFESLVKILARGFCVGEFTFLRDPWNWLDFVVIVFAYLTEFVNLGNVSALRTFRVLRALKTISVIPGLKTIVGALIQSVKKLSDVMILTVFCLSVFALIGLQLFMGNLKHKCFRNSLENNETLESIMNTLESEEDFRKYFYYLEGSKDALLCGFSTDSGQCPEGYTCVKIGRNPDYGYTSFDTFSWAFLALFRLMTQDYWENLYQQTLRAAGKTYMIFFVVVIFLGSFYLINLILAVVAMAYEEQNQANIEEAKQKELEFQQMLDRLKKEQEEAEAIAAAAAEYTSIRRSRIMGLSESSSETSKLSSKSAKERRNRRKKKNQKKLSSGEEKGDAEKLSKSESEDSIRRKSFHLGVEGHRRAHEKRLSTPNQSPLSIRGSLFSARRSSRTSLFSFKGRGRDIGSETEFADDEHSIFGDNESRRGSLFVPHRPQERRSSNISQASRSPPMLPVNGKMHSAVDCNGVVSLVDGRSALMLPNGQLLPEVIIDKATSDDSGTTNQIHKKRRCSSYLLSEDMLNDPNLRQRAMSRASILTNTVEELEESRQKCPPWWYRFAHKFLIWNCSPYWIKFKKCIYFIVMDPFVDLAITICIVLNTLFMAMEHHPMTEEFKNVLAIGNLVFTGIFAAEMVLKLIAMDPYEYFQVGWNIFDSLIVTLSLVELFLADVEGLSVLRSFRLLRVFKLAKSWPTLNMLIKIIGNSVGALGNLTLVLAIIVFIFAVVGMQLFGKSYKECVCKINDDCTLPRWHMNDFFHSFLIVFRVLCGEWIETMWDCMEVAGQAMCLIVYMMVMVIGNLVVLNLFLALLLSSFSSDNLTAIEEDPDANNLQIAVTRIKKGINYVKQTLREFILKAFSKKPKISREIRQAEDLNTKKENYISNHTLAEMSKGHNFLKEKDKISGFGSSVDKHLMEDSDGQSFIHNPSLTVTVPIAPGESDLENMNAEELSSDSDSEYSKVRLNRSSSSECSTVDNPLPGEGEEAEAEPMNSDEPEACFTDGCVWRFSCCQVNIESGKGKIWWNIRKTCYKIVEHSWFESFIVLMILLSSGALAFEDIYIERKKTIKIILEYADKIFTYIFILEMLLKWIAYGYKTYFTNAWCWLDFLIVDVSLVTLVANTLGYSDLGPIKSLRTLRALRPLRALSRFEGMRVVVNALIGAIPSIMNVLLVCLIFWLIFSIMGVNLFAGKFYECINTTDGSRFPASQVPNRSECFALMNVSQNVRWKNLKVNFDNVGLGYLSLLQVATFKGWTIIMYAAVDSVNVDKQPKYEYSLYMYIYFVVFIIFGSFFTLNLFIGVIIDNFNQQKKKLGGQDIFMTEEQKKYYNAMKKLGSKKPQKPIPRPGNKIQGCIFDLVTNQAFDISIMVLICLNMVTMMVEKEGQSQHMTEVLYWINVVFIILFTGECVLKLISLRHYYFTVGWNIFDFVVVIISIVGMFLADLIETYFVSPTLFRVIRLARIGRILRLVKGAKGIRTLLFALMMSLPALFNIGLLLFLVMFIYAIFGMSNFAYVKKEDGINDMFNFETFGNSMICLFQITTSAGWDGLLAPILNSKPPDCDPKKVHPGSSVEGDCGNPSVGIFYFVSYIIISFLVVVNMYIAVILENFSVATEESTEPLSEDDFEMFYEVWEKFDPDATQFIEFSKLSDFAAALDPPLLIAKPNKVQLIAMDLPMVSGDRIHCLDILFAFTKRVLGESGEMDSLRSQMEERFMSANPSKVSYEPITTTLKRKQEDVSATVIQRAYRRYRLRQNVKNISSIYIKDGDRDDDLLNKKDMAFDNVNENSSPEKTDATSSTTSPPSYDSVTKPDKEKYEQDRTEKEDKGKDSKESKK

| Structure (SMILES) | pIC50 |
| --- | --- |
| COc1ncc(-c2cccc3c2C[C@H](NC(=O)c2ccc(C(=O)N(C)CC(C)C)nc2)CO3)cn1 [Example 112, N^2-isobutyl-N^5-[(3S)-5-(2-methoxypyrimidin-5-yl)-3,4-dihydro-2H-chromen-3-yl]-N^2-methylpyridine-2,5-dicarboxamide] | 5.80 |
| O=C(N[C@@H]1COc2cccc(-c3ccncc3)c2C1)c1ccc(OCc2nccs2)nc1 [Example 114, N-[(3S)-5-pyridin-4-yl-3,4-dihydro-2H-chromen-3-yl]-6-(1,3-thiazol-2-ylmethoxy)nicotinamide] | 6.00 |
| Cc1cc(COc2ccc(C(=O)N[C@@H]3COc4cccc(-c5ccncc5)c4C3)cn2)no1 [Example 115, 6-[(5-methylisoxazol-3-yl)methoxy]-N-[(3S)-5-pyridin-4-yl-3,4-dihydro-2H-chromen-3-yl]nicotinamide] | 6.50 |
| Cn1ccnc1COc1ccc(C(=O)N[C@@H]2COc3cccc(-c4ccncc4)c3C2)cn1 [Example 116, 6-[(1-methyl-1H-imidazol-2-yl)methoxy]-N-[(3S)-5-pyridin-4-yl-3,4-dihydro-2H-chromen-3-yl]nicotinamide] | 5.70 |
| O=C(N[C@@H]1COc2cccc(-c3ccncc3)c2C1)c1ccc(S(=O)(=O)C2CCCC2)nc1 [Example 117, 6-(cyclopentylsulfonyl)-N-[(3S)-5-pyridin-4-yl-3,4-dihydro-2H-chromen-3-yl]nicotinamide] | 6.30 |
| O=C(N[C@@H]1COc2cccc(-c3ccncc3)c2C1)c1ccc(OCc2ccccn2)nc1 [Example 118, N-[(3S)-5-pyridin-4-yl-3,4-dihydro-2H-chromen-3-yl]-6-(pyridin-2-ylmethoxy)nicotinamide] | 5.80 |
| O=C(N[C@@H]1COc2cccc(-c3ccncc3)c2C1)c1ccc(OCc2cccnc2)nc1 [Example 119, N-[(3S)-5-pyridin-4-yl-3,4-dihydro-2H-chromen-3-yl]-6-(pyridin-3-ylmethoxy)nicotinamide] | 5.70 |
| O=C(N[C@@H]1COc2cccc(-c3ccncc3)c2C1)c1ccc(OCc2cnccn2)nc1 [Example 120, 6-(pyrazin-2-ylmethoxy)-N-[(3S)-5-pyridin-4-yl-3,4-dihydro-2H-chromen-3-yl]nicotinamide] | 5.80 |
| COc1ncc(-c2cccc3c2C[C@H](NC(=O)c2ccc(OCC4CCCO4)nc2)CO3)cn1 (stereo partly drawn) [Example 121, N-[(3S)-5-(2-methoxypyrimidin-5-yl)-3,4-dihydro-2H-chromen-3-yl]-6-(tetrahydrofuran-2-ylmethoxy)nicotinamide] | 5.30 |
| COc1ncc(-c2cccc3c2C[C@H](NC(=O)c2ccc(OCC4CCCCO4)nc2)CO3)cn1 (stereo partly drawn) [Example 122, N-[(3S)-5-(2-methoxypyrimidin-5-yl)-3,4-dihydro-2H-chromen-3-yl]-6-(tetrahydro-2H-pyran-2-ylmethoxy)nicotinamide] | 5.70 |
| COc1ncc(-c2cccc3c2C[C@H](NC(=O)c2ccc(OCC4CCOCC4)nc2)CO3)cn1 [Example 123, N-[(3S)-5-(2-methoxypyrimidin-5-yl)-3,4-dihydro-2H-chromen-3-yl]-6-(tetrahydro-2H-pyran-4-ylmethoxy)nicotinamide] | 6.00 |
| CC#CCOc1ccc(C(=O)N[C@@H]2COc3cccc(-c4cnc(OC)nc4)c3C2)cn1 [Example 124, 6-(but-2-yn-1-yloxy)-N-[(3S)-5-(2-methoxypyrimidin-5-yl)-3,4-dihydro-2H-chromen-3-yl]nicotinamide] | 6.80 |
| COc1ncc(-c2cccc3c2C[C@H](NC(=O)c2ccc(C(=O)NCCC(F)(F)F)nc2)CO3)cn1 [Example 125, N^5-[(3S)-5-(2-methoxypyrimidin-5-yl)-3,4-dihydro-2H-chromen-3-yl]-N^2-(3,3,3-trifluoropropyl)pyridine-2,5-dicarboxamide] | 6.50 |
| COCCOc1ccc(C(=O)N[C@@H]2COc3cccc(-c4ccncc4)c3C2)cn1 [Example 126, 6-(2-methoxyethoxy)-N-[(3S)-5-pyridin-4-yl-3,4-dihydro-2H-chromen-3-yl]nicotinamide] | 5.70 |
| O=C(N[C@@H]1COc2cccc(-c3ccncc3)c2C1)c1ccc(OCC2CCO2)nc1 (stereo partly drawn) [Example 127, 6-(oxetan-2-ylmethoxy)-N-[(3S)-5-pyridin-4-yl-3,4-dihydro-2H-chromen-3-yl]nicotinamide] | 5.50 |
| CO[C@H](C)COc1ccc(C(=O)N[C@@H]2COc3cccc(-c4ccncc4)c3C2)cn1 [Example 128, 6-{[(2R)-2-methoxypropyl]oxy}-N-[(3S)-5-pyridin-4-yl-3,4-dihydro-2H-chromen-3-yl]nicotinamide] | 6.00 |
| O=C(N[C@@H]1COc2cccc(-c3ccncc3)c2C1)c1ccc(OC2CCOCC2)nc1 [Example 129, N-[(3S)-5-pyridin-4-yl-3,4-dihydro-2H-chromen-3-yl]-6-(tetrahydro-2H-pyran-4-yloxy)nicotinamide] | 6.70 |
| O=C(N[C@@H]1COc2cccc(-c3ccncc3)c2C1)c1ccc(C(=O)NC2CCOCC2)nc1 [Example 130, N^5-[(3S)-5-pyridin-4-yl-3,4-dihydro-2H-chromen-3-yl]-N^2-(tetrahydro-2H-pyran-4-yl)pyridine-2,5-dicarboxamide] | 5.40 |

| Structure (SMILES) | pIC50 |
| --- | --- |
| O=C(N[C@@H]1COc2cccc(-c3ccncc3)c2C1)c1ccc(C(=O)NCC(F)(F)F)nc1 [Example 131, N^5-[(3S)-5-pyridin-4-yl-3,4-dihydro-2H-chromen-3-yl]-N^2-(2,2,2-trifluoroethyl)pyridine-2,5-dicarboxamide] | 6.20 |
| O=C(N[C@@H]1COc2cccc(-c3cccnc3)c2C1)c1ccc(C(=O)NCCC(F)(F)F)nc1 [Example 132, N^5-[(3S)-5-pyridin-3-yl-3,4-dihydro-2H-chromen-3-yl]-N^2-(3,3,3-trifluoropropyl)pyridine-2,5-dicarboxamide] | 7.10 |
| O=C(N[C@@H]1COc2cccc(-c3cccnc3)c2C1)c1cnc(OC2CCOCC2)cn1 [Example 133, N-[(3S)-5-pyridin-3-yl-3,4-dihydro-2H-chromen-3-yl]-5-(tetrahydro-2H-pyran-4-yloxy)pyrazine-2-carboxamide] | 6.10 |
| COc1ccc(-c2cccc3c2C[C@H](NC(=O)c2ccc(OC4CCOCC4)nc2)CO3)cn1 [Example 134, N-[(3S)-5-(6-methoxypyridin-3-yl)-3,4-dihydro-2H-chromen-3-yl]-6-(tetrahydro-2H-pyran-4-yloxy)nicotinamide] | 6.50 |
| COc1ccc(-c2cccc3c2C[C@H](NC(=O)c2ccc(OC4CCCOC4)nc2)CO3)cn1 (stereo partly drawn) [Example 135, N-[(3S)-5-(6-methoxypyridin-3-yl)-3,4-dihydro-2H-chromen-3-yl]-6-(tetrahydro-2H-pyran-3-yloxy)nicotinamide] | 6.50 |
| O=C(N[C@@H]1COc2cccc(-c3ccncc3)c2C1)c1ccc(OC2CCCOC2)nc1 (stereo partly drawn) [Example 136, N-[(3S)-5-pyridin-4-yl-3,4-dihydro-2H-chromen-3-yl]-6-(tetrahydro-2H-pyran-3-yloxy)nicotinamide] | 6.50 |
| COCCOc1ccc(C(=O)N[C@@H]2COc3cccc(-c4cccnc4)c3C2)cn1 [Example 137, 6-(2-methoxyethoxy)-N-[(3S)-5-pyridin-3-yl-3,4-dihydro-2H-chromen-3-yl]nicotinamide] | 6.10 |
| COCCn1nc(C)c(C(=O)N[C@@H]2COc3cccc(-c4cccnc4)c3C2)n1 [Example 138, 2-(2-methoxyethyl)-5-methyl-N-[(3S)-5-pyridin-3-yl-3,4-dihydro-2H-chromen-3-yl]-2H-1,2,3-triazole-4-carboxamide] | 5.50 |
| O=C(N[C@@H]1COc2cccc(-c3cccnc3)c2C1)c1ccc(OCC2CCO2)nc1 (stereo partly drawn) [Example 139, 6-(oxetan-2-ylmethoxy)-N-[(3S)-5-pyridin-3-yl-3,4-dihydro-2H-chromen-3-yl]nicotinamide] | 5.80 |
| COCCOc1ccc(C(=O)N[C@@H]2COc3cccc(-c4ccnc(OC)c4)c3C2)cn1 [Example 140, 6-(2-methoxyethoxy)-N-[(3S)-5-(2-methoxypyridin-4-yl)-3,4-dihydro-2H-chromen-3-yl]nicotinamide] | 6.20 |
| COCCOc1ccc(C(=O)N[C@@H]2COc3cccc(-c4cnc(C)nc4)c3C2)cn1 [Example 141, 6-(2-methoxyethoxy)-N-[(3S)-5-(2-methylpyrimidin-5-yl)-3,4-dihydro-2H-chromen-3-yl]nicotinamide] | 5.40 |
| COCCOc1ccc(C(=O)N[C@@H]2COc3cccc(-c4ccncc4C)c3C2)cn1 [Example 142, 6-(2-methoxyethoxy)-N-[(3S)-5-(3-methylpyridin-4-yl)-3,4-dihydro-2H-chromen-3-yl]nicotinamide] | 5.50 |
| COCCOc1ccc(C(=O)N[C@@H]2COc3cccc(-c4ccc(F)nc4)c3C2)cn1 [Example 143, N-[(3S)-5-(6-fluoropyridin-3-yl)-3,4-dihydro-2H-chromen-3-yl]-6-(2-methoxyethoxy)nicotinamide] | 5.80 |
| COCCOc1ccc(C(=O)N[C@@H]2CCc3cccc(-c4cccnc4F)c3C2)cn1 [Example 144, N-[(2R)-8-(2-fluoropyridin-3-yl)-1,2,3,4-tetrahydronaphthalen-2-yl]-6-(2-methoxyethoxy)nicotinamide] | 5.50 |
| O=C(N[C@@H]1CCc2cccc(-c3cccnc3F)c2C1)c1ccc(OC2CCOCC2)nc1 [Example 145, N-[(2R)-8-(2-fluoropyridin-3-yl)-1,2,3,4-tetrahydronaphthalen-2-yl]-6-(tetrahydro-2H-pyran-4-yloxy)nicotinamide] | 6.70 |
| O=C(N[C@@H]1CCc2cccc(-c3ccnnc3)c2C1)c1ccc(OC2CCCOC2)nc1 (stereo partly drawn) [Example 146, N-[(2R)-8-pyridazin-4-yl-1,2,3,4-tetrahydronaphthalen-2-yl]-6-(tetrahydro-2H-pyran-3-yloxy)nicotinamide] | 5.10 |
| Cc1ccc(-c2cccc3c2C[C@H](NC(=O)c2cnc(OC4CCCOC4)nc2)CC3)cn1 (stereo partly drawn) [Example 147, N-[(2R)-8-(6-methylpyridin-3-yl)-1,2,3,4-tetrahydronaphthalen-2-yl]-2-(tetrahydro-2H-pyran-3-yloxy)pyrimidine-5-carboxamide] | 5.80 |
